# Data: patent US4533739A, “2-[(Aminophenyl and amidophenyl)amino]-1-azacycloalkanes having antidiarrheal activity” (G. D. Searle & Co., priority 1982, dated 1985)
# Structures can show the parent of a compound that is named as a salt.
# Columns and labels:
# [1] = test system: castor-oil-induced diarrhea; assay: Castor oil-induced diarrhea in rats; conditions: Rattus norvegicus, po, 4 h, read-out: Castor Oil ID50 (mg/kg)-4 hr.
# [2] = lowering of blood pressure, hyperglycemic activity, inhibitory action on central nervous system; cited from earlier work
SMILES,ED50 [1],pharmacodynamic activity in words [2]
"CC(=O)Nc1ccc(NC2=NCCC2)c(C)c1 [Example 16, 2-[(2-Methyl-4-acetamidopheny)amino]-1-pyrroline, hydrochloride]",3.63 mg/kg,–
"Clc1cccc(Cl)c1N=C1CCCN1 [2-(2,6-dichloroophenylimino)pyrrolidine]",–,pharmacodynamically active
"CCC(=O)Nc1ccc(NC2=NCCC2)c(C)c1.Cl [Example 18, 2-[(2-Methyl-4-(propanamido)phenyl)amino]-1-pyrroline, hydrochloride]",0.97 mg/kg,–
"Cc1cc(N)cc(C)c1NC1=NCCC1.Cl.Cl [Example 11, 2-[(2,6-Dimethyl-4-aminophenyl)amino]-1-pyrroline, dihydrochloride]",13.6 mg/kg,–
"Cc1cc(N)ccc1NC1=NCCC1.Cl.Cl [Example 9, 2-[(2-Methyl-4-aminophenyl)amino]-1-pyrroline, dihydrochloride]",0.97 mg/kg,–
"CCOC(=O)Nc1ccc(NC2=NCCC2)c(C)c1.Cl [Example 23, 2-[(2-Methyl-4-(ethoxycarbonylamino)phenyl)-amino]-1-pyrroline, hydrochloride]",1.81 mg/kg,–
